According to patent US20240139185A1, “COMPOUNDS THAT PARTICIPATE IN COOPERATIVE BINDING AND USES THEREOF” (Revolution Medicines, Inc., priority 2018, published 2024):

Legend:
[1] = target: T1, BRAF-GTP-KRAS-G12C complex (Homo sapiens, UniProt P01116+P62937, G12C); experiment: KRAS-BRAF complex disruption through competition with CYPA-compound by TR-FRET; settings: biochemical BRAF-KRAS G12C-GTP disruption assay EC50, with CYPA
T1 construct: 50 nM of His6-KRas G12C-GTP (1-169); 500 nM of tagless CypA (1-165)
Summary of the method: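 Compound-driven loss of KRAS–BRAF RBD TR-FRET signal, Eu-anti-His/APC-anti-GST pair (10/50 nM, 1.5 h), following a 3 h room-temperature preincubation of 50 nM His6-KRAS G12C-GTP and 500 nM CypA in 25 mM Hepes pH 7.3 buffer. EC50 by 4-parameter fit. Variants used wild-type KRAS in place of G12C or no CypA.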

pERK in H358 cells = experiment: pERK inhibition in H358 cells; format: cell-based, human; settings: 4 hours treatment, read-out: Cellular pERK inhibition
Protocol: H358 cells (5500 cells) derived from a human lung cancer were plated in a 96 well plate in media (100 uL, RPMI with 10% FBS). After 24 hours, cells were treated for 4 hours with compound or DMSO. Cells were washed twice with room temperature TBS (200 uL) and fixed for 20 minutes with 4% paraformaldehyde diluted with TBS (150 uL). Cells were washed four times for five minutes with 0.1% TritonX/TBS (150 uL) to permeabilize the membrane. Cells were incubated with TBS blocking buffer (100 uL) at room temperature for 60 minutes. Primary antibody (Phospho-p44/42 MAPK (Erk1/2) (Thr202/Tyr204) (D13.14.4E) XP® Rabbit mAb #4370, Cell Signaling Technology; 1:200) was added, and the cells were incubated overnight at 4 C. The cells were washed four times for five minutes with 0.1% Tween 20/TBS (150 uL). Secondary antibody (IRDye® 800CW Goat-Anti-Rabbit IgG, Li-Cor Biosciences; 1:1000) and DRAQ5™ (Invitrogen; 1:2000) was added, and the cells were incubated for 1 hour at room temperature. The cells were washed four times for five minutes with 0.1% Tween 20/TBS (150 uL) and scanned using the LICOR (700 and 800 nm).

cyclophilin A (CYPA) = cyclophilin A (CYPA) (Homo sapiens, UniProt P62937); experiment: CYPA-compound binary complex formation by SPR; settings: read-out: CYPA Binding Affinity
Summary of the method: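 Steady-state fit of SPR responses gave binding affinity. Analyte series: 50 μM downward, 2-fold, 10 points, running buffer HBS-P+ (0.05% Tween20, pH7.4, 2% DMSO), 60 s on/60 s off. Surface: biotinylated CypA-Avi captured at 4 μg/ml against a reference cell, regenerated with NaOH/guanidine.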

Structure (SMILES)	EC50 [1] [µM]	IC50 (pERK in H358 cells) [µM]	Kd (cyclophilin A (CYPA)) [µM]
CC(C)[C@@H](C(=O)N[C@H]1Cc2cc(O)cc(c2)-c2ccc3c(C(C)(C)C#N)cn(c3c2)C[C@H](C)COC(=O)[C@@H]2CCCN(N2)C1=O)N1CC[C@@H](NC(=O)CCl)C1=O [Compound 28]	0.5 to 5	> 10	≤ 5
CC(C)[C@@H](C(=O)N[C@H]1Cc2cc(O)cc(c2)-c2ccc3c(C(C)(C)C#N)cn(c3c2)C[C@H](C)COC(=O)[C@@H]2CCCN(N2)C1=O)N1CC[C@@H](N(C)C(=O)CCl)C1=O [Compound 30]	0.5 to 5	1 to 10	≤ 5
CC(C)C(C(=O)NC1Cc2cc(O)cc(c2)-c2ccc3c(C(C)(C)C#N)cn(c3c2)CC(C)(C)COC(=O)C2CCCN(N2)C1=O)N(C)C(=O)C1CCN(C(=O)CCl)C1 (stereo not drawn) [Compound 33]	≤ 0.5	≤ 1	5 to 15
CC(C)[C@@H](C(=O)N[C@H]1Cc2cc(O)cc(c2)-c2ccc3c(C(C)(C)C#N)cn(c3c2)CC(C)(C)COC(=O)[C@@H]2CCCN(N2)C1=O)N(C)C(=O)C1(F)CN(C(=O)[C@@H](C)Cl)C1 [Compound 35]	> 5	> 10	5 to 15
CC(C)[C@@H](C(=O)N[C@H]1Cc2cc(O)cc(c2)-c2ccc3c(C(C)(C)C#N)cn(c3c2)CC(CC#N)COC(=O)[C@@H]2CCCN(N2)C1=O)N(C)C(=O)C1CN(C(=O)CCl)C1 (stereo partly drawn) [Compound 39]	≤ 0.5	> 10	5 to 15
C=CC(=O)N1CC2(CCN(C(C(=O)NC3Cc4cc(O)cc(c4)-c4ccc5c(C(C)(C)C#N)cn(c5c4)CC(C)(C)COC(=O)C4CCCN(N4)C3=O)C(C)C)C2=O)C1 (stereo not drawn) [Compound 42]	0.5 to 5	1 to 10	5 to 15
CC(C)C(C(=O)NC1Cc2cc(O)cc(c2)-c2ccc3c(C(C)(C)C#N)cn(c3c2)CC(C)(C)COC(=O)C2CCCN(N2)C1=O)N1CCC2(CN(C(=O)CCl)C2)C1=O (stereo not drawn) [Compound 44]	≤ 0.5	1 to 10	5 to 15
CC1COC(=O)C2CCCN(N2)C(=O)C(NC(=O)C(C(C)C)N(C)C(=O)C2CN(C(=O)CCl)C2)Cc2cc(O)cc(c2)-c2ccc3c(-c4cccc(C#N)c4)cn(c3c2)C1 (stereo not drawn) [Compound 46]	≤ 0.5	≤ 1	5 to 15
COc1ccccc1-c1cn2c3cc(ccc13)-c1cc(O)cc(c1)CC(NC(=O)C(C(C)C)N(C)C(=O)C1CN(C(=O)CCl)C1)C(=O)N1CCCC(N1)C(=O)OCC(C)C2 (stereo not drawn) [Compound 48]	≤ 0.5	1 to 10	5 to 15
COc1ccc(-c2cn3c4cc(ccc24)-c2cc(O)cc(c2)C[C@H](NC(=O)[C@H](C(C)C)N(C)C(=O)C2CN(C(=O)CCl)C2)C(=O)N2CCC[C@H](N2)C(=O)OC[C@@H](C)C3)cc1 [Compound 50]	≤ 0.5	1 to 10	5 to 15
CC[C@@H](C(=O)N[C@H]1Cc2cc(O)cc(c2)-c2ccc3c(C(C)(C)C#N)cn(c3c2)CC(C)(C)COC(=O)[C@@H]2CCCN(N2)C1=O)N(C)C(=O)C1CN(C(=O)CCl)C1 [Compound 56]	≤ 0.5	> 10	> 15
CN(C(=O)C1CN(C(=O)CCl)C1)[C@@H](CC1CC1)C(=O)N[C@H]1Cc2cc(O)cc(c2)-c2ccc3c(C(C)(C)C#N)cn(c3c2)CC(C)(C)COC(=O)[C@@H]2CCCN(N2)C1=O [Compound 57]	≤ 0.5	1 to 10	> 15
CC(C)[C@@H](C(=O)N[C@H]1Cc2cc(O)cc(n2)-c2ccc3c(C(C)(C)C#N)cn(c3c2)C[C@H](C)COC(=O)[C@@H]2CCCN(N2)C1=O)N(C)C(=O)C1CN(C(=O)CCl)C1 [Compound 59]	> 5	> 10	> 15
CC(C)[C@@H](C(=O)N[C@H]1Cc2cc(O)cc(n2)-c2ccc3c(C(C)(C)C#N)cn(c3c2)C[C@H](C)CNC(=O)[C@@H]2CCCN(N2)C1=O)N(C)C(=O)C1CN(C(=O)CCl)C1 [Compound 60]	> 5	> 10	5 to 15
CCN(C(=O)C1CN(C(=O)CCl)C1)[C@H](C(=O)N[C@H]1Cc2cc(O)cc(c2)-c2ccc3c(C(C)(C)C#N)cn(c3c2)CC(C)(C)COC(=O)[C@@H]2CCCN(N2)C1=O)C(C)C [Compound 65]	≤ 0.5	1 to 10	> 15
CC(C)[C@@H](C(=O)N[C@H]1Cc2cc(O)cc(c2)-c2ccc3c4cc(C#N)ccc4n(c3c2)CC(C)(C)COC(=O)[C@@H]2CCCN(N2)C1=O)N(C)C(=O)C1CN(C(=O)CCl)C1 [Compound 68]	≤ 0.5	1 to 10	≤ 5
CC(C)[C@@H](C(=O)N[C@H]1Cc2cc(O)cc(c2)-c2ccc3c(Cc4ccccn4)cn(c3c2)C[C@H](C)COC(=O)[C@@H]2CCCN(N2)C1=O)N(C)C(=O)C1CN(C(=O)CCl)C1 [Compound 69]	≤ 0.5	1 to 10	≤ 5
CON=C(C)c1cn2c3cc(ccc13)-c1cc(O)cc(c1)CC(NC(=O)C(C(C)C)N(C)C(=O)C1CN(C(=O)CCl)C1)C(=O)N1CCCC(N1)C(=O)OCC(C)C2 (stereo not drawn) [Compound 73]	≤ 0.5	1 to 10	≤ 5
CC(C)[C@@H](C(=O)N[C@H]1Cc2cc(O)cc(c2)-c2ccc3c(CCC#N)cn(c3c2)C[C@H](C)COC(=O)[C@@H]2CCCN(N2)C1=O)N(C)C(=O)C1CN(C(=O)CCl)C1 [Compound 76]	≤ 0.5	≤ 1	≤ 5
CC1COC(=O)C2CCCN(N2)C(=O)C(NC(=O)C(C(C)C)N(C)C(=O)C2CN(C(=O)CCl)C2)Cc2cc(O)cc(c2)-c2ccc3c(C(C)C#N)cn(c3c2)C1 (stereo not drawn) [Compound 77]	≤ 0.5	≤ 1	≤ 5
CC(C)[C@@H](C(=O)N[C@H]1Cc2cc(O)cc(c2)-c2ccc3c(C(C#N)C4CC4)cn(c3c2)C[C@H](C)COC(=O)[C@@H]2CCCN(N2)C1=O)N(C)C(=O)C1CN(C(=O)CCl)C1 (stereo partly drawn) [Compound 78]	≤ 0.5	1 to 10	5 to 15
CC(C)[C@@H](C(=O)N[C@H]1Cc2cc(O)cc(c2)-c2ccc3c(C4(C#N)CCC4)cn(c3c2)C[C@H](C)COC(=O)[C@@H]2CCCN(N2)C1=O)N(C)C(=O)C1CN(C(=O)CCl)C1 [Compound 81]	≤ 0.5	≤ 1	5 to 15
CC(C)[C@@H](C(=O)N[C@H]1Cc2cc(O)cc(c2)-c2ccc3c(C(C)(C)C#N)c(C#N)n(c3c2)C[C@H](C)COC(=O)[C@@H]2CCCN(N2)C1=O)N(C)C(=O)C1CN(C(=O)CCl)C1 [Compound 85]	≤ 0.5	≤ 1	≤ 5
CCc1c(-c2ccccc2OC)n2c3cc(ccc13)-c1cc(O)cc(c1)C[C@H](NC(=O)[C@H](C(C)C)N(C)C(=O)C1CN(C(=O)CCl)C1)C(=O)N1CCC[C@H](N1)C(=O)OC[C@@H](C)C2 [Compound 86]	≤ 0.5	≤ 1	> 15
C=CC(=O)N1CCC(C(=O)N(C)C(C(=O)NC2Cc3cc(O)cc(c3)-c3ccc4c(C(C)(C)C#N)cn(c4c3)CC(C)(C)COC(=O)C3CCCN(N3)C2=O)C(C)C)C1 (stereo not drawn) [Compound 89]	0.5 to 5	1 to 10	5 to 15
C=CC(=O)N1CCC(C(=O)N(C)C(C(=O)NC2Cc3cc(O)cc(c3)-c3ccc4cc(-c5ccccc5COC)n(c4c3)CC(C)(C)COC(=O)C3CCCN(N3)C2=O)C(C)C)C1 (stereo not drawn) [Compound 90]	0.5 to 5	≤ 1	5 to 15
C#CCOCc1cc2ccc3cc2n1C[C@H](C)COC(=O)[C@@H]1CCCN(N1)C(=O)[C@@H](NC(=O)[C@H](C(C)C)N(C)C(=O)C1CN(C(=O)CCl)C1)Cc1cc(O)cc-3c1 [Compound 91]	0.5 to 5	1 to 10	5 to 15
C=CC(=O)N1CCN([C@H](C(=O)N[C@H]2Cc3cc(O)cc(c3)-c3ccc4c(C)cn(c4c3)CC(C)(C)COC(=O)[C@@H]3CCCN(N3)C2=O)C(C)C)C1=O [Compound 97]	≤ 0.5	> 10	> 15
CCc1cn2c3cc(ccc13)-c1cc(O)cc(c1)CC(NC(=O)C(C(C)C)N(C)C(=O)C1CN(C(=O)CCl)C1)C(=O)N1CCCC(N1)C(=O)OCC(C)(C)C2 (stereo not drawn) [Compound 99]	≤ 0.5	≤ 1	> 15
CC(C)[C@@H](C(=O)N[C@H]1Cc2cc(O)cc(c2)-c2ccc3c(S(C)(=O)=O)cn(c3c2)CCCOC(=O)[C@@H]2CCCN(N2)C1=O)N(C)C(=O)C1CN(C(=O)CCl)C1 [Compound 102]	≤ 0.5	> 10	5 to 15
